Experimental data taken from US20200181132A1, “QUINOXALINE AND PYRIDOPYRAZINE DERIVATIVES AS PI3K-BETA INHIBITORS” (JANSSEN PHARMACEUTICA NV, priority 2017, published 2020).
Read-outs that look alike come from different tables or passages of the source.

Tests used:
[1] = target: T1, PIK3Cα_h (Homo sapiens, UniProt P42336); test: Enzyme binding assay (KINOMEscan), PIK3Cα; details: DiscoveRx
T1 construct: purchased DiscoveRx Corporation
Protocol: (§1) Enzyme Binding Assays (KINOMEscan®)
(§2) Kinase enzyme binding affinities of compounds disclosed herein were determined using the KINOMEscan technology performed by DiscoveRx Corporation, San Diego, Calif., USA (www.kinomescan.com). Table A reports the obtained Kd values (nM), with the Kd being the inhibitor binding constant: […]

[2] = target: T2, PIK3Cβ_h (Homo sapiens, UniProt P42338); test: Enzyme binding assay (KINOMEscan), PIK3Cβ; details: DiscoveRx
T2 construct: purchased DiscoveRx Corporation
Protocol: as §1, §2

[3] = target: T3, PIK3Cδ_h (Homo sapiens, UniProt O00329); test: Enzyme binding assay (KINOMEscan), PIK3Cδ; details: DiscoveRx
T3 construct: purchased DiscoveRx Corporation
T3 sequence (O00329 1-1044): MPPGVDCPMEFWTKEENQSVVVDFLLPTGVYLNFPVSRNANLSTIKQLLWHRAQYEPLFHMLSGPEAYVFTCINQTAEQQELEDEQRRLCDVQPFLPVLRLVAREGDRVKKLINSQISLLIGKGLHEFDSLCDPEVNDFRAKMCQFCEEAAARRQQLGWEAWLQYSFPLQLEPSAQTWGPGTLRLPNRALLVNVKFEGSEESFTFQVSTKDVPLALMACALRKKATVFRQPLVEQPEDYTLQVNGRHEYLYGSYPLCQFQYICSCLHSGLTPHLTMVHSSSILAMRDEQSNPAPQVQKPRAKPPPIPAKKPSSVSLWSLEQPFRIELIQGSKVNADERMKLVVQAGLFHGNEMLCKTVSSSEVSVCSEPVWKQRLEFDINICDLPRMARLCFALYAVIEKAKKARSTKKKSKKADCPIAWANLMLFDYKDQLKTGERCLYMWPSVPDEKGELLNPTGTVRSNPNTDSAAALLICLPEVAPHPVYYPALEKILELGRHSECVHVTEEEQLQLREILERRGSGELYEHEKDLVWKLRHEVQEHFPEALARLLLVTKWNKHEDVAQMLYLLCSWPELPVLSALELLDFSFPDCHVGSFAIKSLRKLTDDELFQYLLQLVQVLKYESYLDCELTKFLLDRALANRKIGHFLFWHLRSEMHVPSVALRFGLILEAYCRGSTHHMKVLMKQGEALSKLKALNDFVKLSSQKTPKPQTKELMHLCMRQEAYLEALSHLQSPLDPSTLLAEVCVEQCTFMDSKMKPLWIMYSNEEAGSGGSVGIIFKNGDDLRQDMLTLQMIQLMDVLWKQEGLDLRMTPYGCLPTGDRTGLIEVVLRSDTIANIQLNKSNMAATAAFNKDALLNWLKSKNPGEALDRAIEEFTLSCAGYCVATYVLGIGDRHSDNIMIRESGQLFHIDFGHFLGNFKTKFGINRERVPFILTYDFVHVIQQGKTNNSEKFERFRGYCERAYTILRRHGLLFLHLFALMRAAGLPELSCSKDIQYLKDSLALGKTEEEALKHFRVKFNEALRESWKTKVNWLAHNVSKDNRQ
Protocol: as §1, §2

[4] = target: T4, PIK3Cγ_h (Homo sapiens, UniProt P48736); test: Enzyme binding assay (KINOMEscan), PIK3Cγ; details: DiscoveRx
T4 construct: purchased DiscoveRx Corporation
Protocol: as §1, §2

[5] = target: T5, MTOR_h (Homo sapiens, UniProt P42345); test: Enzyme binding assay (KINOMEscan), MTOR; details: DiscoveRx
T5 construct: purchased DiscoveRx Corporation
Protocol: as §1, §2

[6] = tested on: phosphorylation of Akt at Ser473 in PC-3 cells; test: Cellular assay: phospho-Akt (Ser473) MSD ELISA in PC-3 cells; format: cell-based; details: 60 min incubation with compound, read-out: IC50 pAkt_S473
Protocol: (§3) Cellular activity of PI3Kβ inhibitors was determined by quantifying the phosphorylation of Akt in PC-3 cells. Akt phosphorylated at Ser473 and Thr308 were measured using an enzyme-linked immunosorbent assay (ELISA; Meso Scale Discovery (MSD), Gaithersburg, Md.) and specific primary antibodies from MSD.
(§4) On day 1, PC3 cells (ATCC # […]) were seeded into PerkinElmer MW96 plates at 25.000 cells per well, in 75 μl complete culture medium (DMEM high glucose, AQmedia™, D0819, Sigma-Aldrich) containing 10% heat inactivated FCS and incubated at 37° C., 5% CO2 during 24 hours. On day 2, compound or DMSO (0.3%) was added and cells were further incubated for 60 min at 37° C., 5% CO2 in a total volume of 100 μl of medium.
(§5) The phosphoprotein assay was executed according to vendor instructions in the Phospho-Akt (Ser473) Assay Whole Cell Lysate Kit (MSD # K15100D-3) and the Phospho-Akt (Thr308) Assay Whole Cell Lysate Kit (MSD # K151DYD-3) using the lysis, blocking and wash buffer provided.
(§6) Briefly, at the end of the cell treatment period, media were removed by aspiration and adherent cells were lysed in 50 μl ice-cold lysis buffer. MSD plates are supplied pre-coated with capture antibodies for Phospho-Akt (Ser473 and Thr308). After blocking, lysates from tissue culture plates were added and plates were washed. Then, a solution containing the detection antibody (anti-total Akt conjugated with an electrochemiluminescent compound-MSD Sulfo-tag label) was added. The signals were detected using an MSD SECTOR Imager 6000 and are proportional to the phospho-Akt titres.
(§7) Data were processed. The percentage of inhibition was plotted against the log concentration of test compounds, and the sigmoidal log concentration-effect curve of best fit was calculated by nonlinear regression analysis. From these concentration-response curves, the IC50 values were calculated. Five concentrations were used for curve fitting.

[7] = tested on: phosphorylation of Akt at Thr308 in PC-3 cells; test: Cellular assay: phospho-Akt (Thr308) MSD ELISA in PC-3 cells; format: cell-based; details: 60 min incubation with compound, read-out: IC50 pAkt_Thr308
Protocol: as §3, §4, §5, §6, §7

T2 sequence (P42338 whole entry): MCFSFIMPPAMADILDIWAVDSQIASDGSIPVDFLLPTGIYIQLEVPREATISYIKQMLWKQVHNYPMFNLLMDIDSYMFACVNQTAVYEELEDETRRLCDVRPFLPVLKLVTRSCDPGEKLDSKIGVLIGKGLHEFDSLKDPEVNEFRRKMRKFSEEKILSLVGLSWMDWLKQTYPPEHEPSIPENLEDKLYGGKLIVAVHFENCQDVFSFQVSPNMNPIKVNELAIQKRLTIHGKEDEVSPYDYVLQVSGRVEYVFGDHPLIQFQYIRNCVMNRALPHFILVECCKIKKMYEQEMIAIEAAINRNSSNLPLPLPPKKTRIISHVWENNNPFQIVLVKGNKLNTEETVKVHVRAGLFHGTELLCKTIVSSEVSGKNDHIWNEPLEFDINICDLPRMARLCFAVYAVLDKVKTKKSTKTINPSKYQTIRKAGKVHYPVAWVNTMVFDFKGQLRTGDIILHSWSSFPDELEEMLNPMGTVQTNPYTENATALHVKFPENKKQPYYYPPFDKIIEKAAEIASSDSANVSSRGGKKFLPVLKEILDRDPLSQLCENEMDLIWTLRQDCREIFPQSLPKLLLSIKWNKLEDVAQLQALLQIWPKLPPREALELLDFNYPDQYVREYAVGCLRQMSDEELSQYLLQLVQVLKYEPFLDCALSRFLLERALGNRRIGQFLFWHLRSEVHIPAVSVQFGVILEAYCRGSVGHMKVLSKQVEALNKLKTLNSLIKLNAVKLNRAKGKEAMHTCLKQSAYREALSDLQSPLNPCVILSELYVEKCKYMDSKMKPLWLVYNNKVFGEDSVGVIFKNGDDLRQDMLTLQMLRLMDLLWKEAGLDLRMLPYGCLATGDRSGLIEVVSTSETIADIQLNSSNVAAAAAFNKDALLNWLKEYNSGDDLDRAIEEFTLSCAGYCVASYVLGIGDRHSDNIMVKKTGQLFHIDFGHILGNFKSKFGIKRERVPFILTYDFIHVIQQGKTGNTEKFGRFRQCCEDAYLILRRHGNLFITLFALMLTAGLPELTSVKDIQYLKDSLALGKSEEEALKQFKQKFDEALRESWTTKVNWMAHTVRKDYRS
T1 sequence (P42336 whole entry): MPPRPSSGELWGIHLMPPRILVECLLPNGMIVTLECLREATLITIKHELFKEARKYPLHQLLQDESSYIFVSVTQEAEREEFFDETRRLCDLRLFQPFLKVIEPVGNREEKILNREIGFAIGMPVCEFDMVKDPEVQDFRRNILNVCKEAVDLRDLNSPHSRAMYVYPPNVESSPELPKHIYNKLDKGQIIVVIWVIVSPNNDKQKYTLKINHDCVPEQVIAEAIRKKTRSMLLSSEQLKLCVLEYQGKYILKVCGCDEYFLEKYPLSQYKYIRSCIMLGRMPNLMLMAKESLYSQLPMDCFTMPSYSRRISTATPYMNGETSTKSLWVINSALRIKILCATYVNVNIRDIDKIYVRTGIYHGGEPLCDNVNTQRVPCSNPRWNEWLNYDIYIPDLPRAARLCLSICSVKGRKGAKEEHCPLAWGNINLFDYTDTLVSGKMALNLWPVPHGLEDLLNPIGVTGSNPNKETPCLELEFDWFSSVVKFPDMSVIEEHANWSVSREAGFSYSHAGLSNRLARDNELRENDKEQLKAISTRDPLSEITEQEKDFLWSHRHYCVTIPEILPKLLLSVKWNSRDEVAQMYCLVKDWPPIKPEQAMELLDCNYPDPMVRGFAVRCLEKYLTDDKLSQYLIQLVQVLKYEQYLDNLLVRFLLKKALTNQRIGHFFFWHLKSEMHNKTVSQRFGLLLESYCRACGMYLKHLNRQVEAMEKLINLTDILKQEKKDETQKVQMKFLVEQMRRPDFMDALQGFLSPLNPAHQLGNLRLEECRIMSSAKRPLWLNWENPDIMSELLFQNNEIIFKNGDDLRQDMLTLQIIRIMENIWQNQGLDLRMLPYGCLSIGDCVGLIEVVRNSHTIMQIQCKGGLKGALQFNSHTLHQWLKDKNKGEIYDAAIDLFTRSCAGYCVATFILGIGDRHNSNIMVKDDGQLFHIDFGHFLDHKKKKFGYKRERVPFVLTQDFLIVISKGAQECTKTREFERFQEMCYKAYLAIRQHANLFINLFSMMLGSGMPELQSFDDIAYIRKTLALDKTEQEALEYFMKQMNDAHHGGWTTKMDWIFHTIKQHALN
T4 sequence (P48736 whole entry): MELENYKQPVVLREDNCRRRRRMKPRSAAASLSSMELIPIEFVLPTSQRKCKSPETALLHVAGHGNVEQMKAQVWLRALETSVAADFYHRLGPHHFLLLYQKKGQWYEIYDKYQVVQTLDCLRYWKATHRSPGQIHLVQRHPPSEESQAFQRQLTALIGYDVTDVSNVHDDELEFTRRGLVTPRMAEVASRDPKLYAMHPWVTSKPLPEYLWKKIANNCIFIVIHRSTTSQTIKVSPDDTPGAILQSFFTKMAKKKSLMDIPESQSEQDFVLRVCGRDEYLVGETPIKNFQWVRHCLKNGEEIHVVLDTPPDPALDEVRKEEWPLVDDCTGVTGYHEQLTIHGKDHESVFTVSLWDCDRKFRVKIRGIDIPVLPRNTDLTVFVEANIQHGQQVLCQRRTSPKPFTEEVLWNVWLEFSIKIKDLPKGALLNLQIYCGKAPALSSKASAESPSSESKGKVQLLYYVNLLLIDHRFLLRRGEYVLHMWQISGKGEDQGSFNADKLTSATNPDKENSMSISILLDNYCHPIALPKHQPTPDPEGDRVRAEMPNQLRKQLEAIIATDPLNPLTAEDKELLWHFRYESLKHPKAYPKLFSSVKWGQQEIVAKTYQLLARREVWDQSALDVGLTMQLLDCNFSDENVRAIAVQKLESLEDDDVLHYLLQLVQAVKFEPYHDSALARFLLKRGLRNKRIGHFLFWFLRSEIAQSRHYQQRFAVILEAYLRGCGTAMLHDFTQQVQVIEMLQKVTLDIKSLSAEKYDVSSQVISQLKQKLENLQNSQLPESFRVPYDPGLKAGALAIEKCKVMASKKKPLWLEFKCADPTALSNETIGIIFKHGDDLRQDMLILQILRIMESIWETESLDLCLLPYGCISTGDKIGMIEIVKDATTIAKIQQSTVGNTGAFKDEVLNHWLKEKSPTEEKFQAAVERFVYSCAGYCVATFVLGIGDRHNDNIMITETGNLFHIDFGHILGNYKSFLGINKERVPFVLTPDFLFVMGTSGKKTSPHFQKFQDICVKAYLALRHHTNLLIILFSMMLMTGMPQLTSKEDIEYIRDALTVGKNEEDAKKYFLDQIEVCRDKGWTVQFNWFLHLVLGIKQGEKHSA

SMILES	Kd [1] [nM]	Kd [2] [nM]	Kd [3] [nM]	Kd [4] [nM]	Kd [5] [nM]	IC50 ([6]; Homo sapiens, PC-3, 1 h) [nM]	IC50 ([7]; Homo sapiens, PC-3, 1 h) [nM]	melting point [°C]	IC50 [6] [nM]	IC50 [7] [nM]
Cc1cc(C)nc(N2CCCC2c2cc(C(=O)N(C)C)cc3ncc(N4CCOCC4)nc23)n1 (stereo not drawn) [Compound 5]	5370	22	832	26900	> 30200	> 513	417	100	–	–
CN(C)C(=O)c1cc(C2CCCN2c2cc(Cl)ncn2)c2nc(N3CCOCC3)cnc2c1 (stereo not drawn) [Compound 1]	16600	42	1410	> 30200	> 30200	> 513	> 513	80	–	–
O=C(NCCO)c1cc(NCc2cncc(F)c2)c2nc(N3CCOCC3)cnc2c1 [Compound 29]	–	–	–	–	–	> 513	> 513	198	–	–
CNCCOCCN(C)C(=O)c1cc(C2CCCN2c2ccnc(Cl)c2)c2nc(N3CCOCC3)cnc2c1 (stereo not drawn) [Compound 49]	> 30200	28	2460	> 30200	> 30200	> 513	> 513	–	–	–
COc1ncc(NC(C)c2cc(C(=O)N(C)C)cc3ncc(N4CCOCC4)nc23)cc1C(F)(F)F (stereo not drawn) [Compound 24]	> 30200	589	8320	> 30200	> 30200	> 513	> 513	80	–	–
CN(C)CCNC(=O)c1cc(C2CCCN2c2cncc(F)n2)c2nc(N3CCOCC3)cnc2c1 (stereo not drawn) [Compound 52]	–	–	–	–	–	> 513	> 513	–	–	–
O=C(NCCO)c1cc(C2CCCN2c2ccnc(Cl)c2)c2nc(N3CCOCC3)cnc2c1 (stereo not drawn) [Compound 47]	17000	32	1950	20900	21900	> 513	> 513	–	–	–
CN(C)CCNC(=O)c1cc(C2CCCN2c2ccnc(F)c2)c2nc(N3CCOCC3)cnc2c1 (single isomer, unassigned) [Compound 39]	19100	1070	31600	> 30200	19500	–	–	–	> 513	> 513
COC(=O)c1cc(C(C)Nc2cncc(F)c2)c2nc(N3CCOCC3)cnc2c1 (stereo not drawn) [Compound 6]	–	–	–	–	–	–	–	240	–	–

Other lines, results leading:

Kd [1] [nM]	Kd [2] [nM]	Kd [3] [nM]	Kd [4] [nM]	Kd [5] [nM]	IC50 ([6]; Homo sapiens, PC-3, 1 h) [nM]	IC50 ([7]; Homo sapiens, PC-3, 1 h) [nM]	melting point [°C]	IC50 [6] [nM]	IC50 [7] [nM]	SMILES
–	0.2	120	1050	> 30200	2	2	–	–	–	CN(C)CCNC(=O)c1cc(C2CCCN2c2cncc(F)c2)c2nc(N3CCOCC3)cnc2c1 (single isomer, unassigned) [Compound 40]
11500	8	1410	20900	> 30200	–	–	177	11	59	CN(C)CCNC(=O)c1cc(C2CCCN2c2ccnc(F)c2)c2nc(N3CCOCC3)cnc2c1 (single isomer, unassigned) [Compound 38]
209	0.8	52	1050	> 30200	~17	3	–	–	–	CN(C)C(=O)c1cc(C2CCCN2c2cncc(F)c2)c2nc(N3CCOCC3)cnc2c1 (stereo not drawn) [Compound 41]
16200	21	1320	28800	> 30200	> 513	468	225	–	–	CC(Nc1cncc(Cl)n1)c1cc(C(=O)N(C)C)cc2ncc(N3CCOCC3)nc12 (stereo not drawn) [Compound 25]
479	0.3	32	457	12300	7	4	–	–	–	CN(C)CCNC(=O)c1cc(C2CCCN2c2cc(Cl)cc(Cl)n2)c2nc(N3CCOCC3)cnc2c1 (stereo not drawn) [Compound 45]
575	2	240	4070	31600	49	30	130	–	–	O=C(c1cc(C2CCCN2c2cncc(F)c2)c2nc(N3CCOCC3)cnc2c1)N1CC2(C1)CS(=O)(=O)C2 (stereo not drawn) [Compound 44]
9120	20	3470	> 30200	> 30200	> 513	> 513	–	–	–	CN(C)CCNC(=O)c1cc(C2CCCN2c2cncc(Br)n2)c2nc(N3CCOCC3)cnc2c1 (stereo not drawn) [Compound 51]
10000	2	372	18200	> 30200	> 513	> 513	80	–	–	CNCCNC(=O)c1cc(C2CCCN2c2ccnc(Cl)c2)c2nc(N3CCOCC3)cnc2c1 (stereo not drawn) [Compound 48]
2820	9	1480	16600	> 30200	> 513	–	160	–	~72	CC(Nc1cncc(F)c1)c1cc(C(=O)N2CC3(C2)CS(=O)(=O)C3)cc2ncc(N3CCOCC3)nc12 (single isomer, unassigned) [Compound 31]
5010	15	661	> 30200	> 30200	> 513	191	80	–	–	COc1ncc(F)cc1NC(C)c1cc(C(=O)N(C)C)cc2ncc(N3CCOCC3)nc12 (stereo not drawn) [Compound 26]
13500	2	550	19500	> 30200	102	66	–	–	–	CN(C)CCNC(=O)c1cc(C2CCCN2c2ccnc(Cl)c2)c2nc(N3CCOCC3)cnc2c1 (stereo not drawn) [Compound 46]
1660	0.9	162	3310	> 30200	19	12	–	–	–	CN(C)CCNC(=O)c1cc(C2CCCN2c2cncc(Cl)n2)c2nc(N3CCOCC3)cnc2c1 (stereo not drawn) [Compound 50]
646	0.5	46	2630	> 30200	2	1	–	–	–	CN(C)CCN(C)C(=O)c1cc(C2CCCN2c2cncc(F)c2)c2nc(N3CCOCC3)cnc2c1 (stereo not drawn) [Compound 42]
